Reference: patent US9999222B2, “Herbicidal combination comprising azines” (BASF SE, priority 2014, dated 2018)
Like-named read-outs stand apart in the source and are kept apart here.

What was measured:
Test in all cases: Greenhouse test, pre-emergence treatment
CENCY [1] = format: in vivo; conditions: individual
DIGSA [2] = format: in vivo; conditions: Digitaria sanguinalis, 480 h, read-out: observed % activity 20 DAT
ABUTH = format: in vivo, Abutilon theophrasti; conditions: Abutilon theophrasti, 480 h, read-out: observed % activity 20 DAT
In short: (§1)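 Seeds were sown in loamy sand with approximately 3.0% humus, then sprayed at once with actives suspended or emulsified in water. Pots were watered, hooded until rooting, held at 10-25° C. or 20-35° C. by species for 2 to 4 weeks, and scored 0 (no damage) to 100 (no emergence/complete destruction).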

DIGSA [3] = format: in vivo, Digitaria sanguinalis; conditions: 4 g ai/ha
SETVI = format: in vivo, Setaria viridis
Excerpt: The culture containers used were plastic flowerpots containing loamy sand with approximately 3.0% of humus as the substrate. The seeds of the test plants were sown separately for each species.
For the pre-emergence treatment, the active ingredients, which had been suspended or emulsified in water, were applied directly after sowing by means of finely distributing nozzles. The containers were irrigated gently to promote germination and growth and subsequently covered with transparent plastic hoods until the plants had rooted. This cover caused uniform germination of the test plants, unless this had been impaired by the active ingredients.
Depending on the species, the plants were kept at 10-25° C. or 20-35° C., respectively.
The test period extended over 2 to 4 weeks. During this time, the plants were tended, and their response to the individual treatments was evaluated.
Evaluation was carried out using a scale from 0 to 100. 100 means no emergence of the plants, or complete destruction of at least the aerial moieties, and 0 means no damage, or normal course of growth. A moderate herbicidal activity is given at values of at least 60, a good herbicidal activity is given at values of at least 70, and a very good herbicidal activity is given at values of at least 85.
The respective stated components a and b, and if appropriate, c were formulated as a 10% by weight strength emulsion concentrate and, with addition of the amount of solvent system, introduced into the spray liquor used for applying the active compound.
In the examples, the solvent used was water.
In the examples below, using the method of S. R. Colby (1967) “Calculating synergistic and antagonistic responses of herbicide combinations”, Weeds 15, p. 22ff., the value E, which is expected if the activity of the individual active compounds is only additive, was calculated. E=X+Y−(X·Y/100) where • X=percent activity using active compound a at an application rate A; • Y=percent activity using active compound b at an application rate B; • E=expected activity (in %) by a+b at application rates A+B.
If the value found experimentally is higher than the value E calculated according to Colby, a synergistic effect is present.

IPOHE = format: in vivo, Ipomoea hederacea
In short: as §1

ERICA [4] = format: in vivo; conditions: 480 h, read-out: observed % activity 20 DAT
CENCY [5] = format: in vivo
ERICA [6] = format: in vivo, Erigeron canadensis
[7] = Ipomoea hederacea, 480 h, 4 g ai/ha, read-out: observed % activity 20 DAT

SMILES: Nc1nc(Nc2c(F)c(F)cc(F)c2F)nc(C2(F)CCCC2)n1 [compound 9, 6-(1-fluorocyclopentyl)-N4-(2,3,5,6-tetrafluorophenyl)-1,3,5-triazine-2,4-diamine]
- inhibition at 8 g/ha (CENCY [1]; 480 h, use rate 8 g ai/ha, read-out: observed % activity 20 DAT): 20%
- inhibition at 16 g/ha (CENCY [1]; 480 h, use rate 16 g ai/ha, read-out: observed % activity 20 DAT): 15%
- observed % activity 20 DAT (CENCY [1]; use rate 8 g ai/ha): 35%
- inhibition at 2 g/ha (DIGSA [2]; 2 g ai/ha): 75%
- inhibition at 4 g/ha (DIGSA [2]; 4 g ai/ha): 60%
- pest or weed control at 4 g/ha (ABUTH; 4 g ai/ha): 55%
- inhibition at 8 g/ha (ABUTH; 8 g ai/ha): 20%
- pest or weed control at 8 g/ha (ABUTH; 8 g ai/ha): 40%
- inhibition at 16 g/ha (ABUTH; 16 g ai/ha): 20%
- inhibition at 8 g/ha (ABUTH; ABUTH, individual, use rate 8 g ai/ha): 20%
- inhibition at 16 g/ha (ABUTH; ABUTH, individual, use rate 16 g ai/ha): 20%
- observed % activity 20 DAT (DIGSA [3]): 80%
- observed % activity 20 DAT (SETVI; 2 g ai/ha): 90%
- observed % activity 20 DAT (SETVI; 4 g ai/ha): 90%
- inhibition at 2 g/ha (SETVI; Setaria viridis, 480 h, 2 g ai/ha, read-out: observed % activity 20 DAT): 70%
- inhibition at 4 g/ha (SETVI; Setaria viridis, 480 h, 4 g ai/ha, read-out: observed % activity 20 DAT): 80%
- observed % activity 20 DAT (IPOHE; 16 g ai/ha): 15%
- observed % activity 20 DAT (IPOHE; IPOHE, individual, use rate 16 g ai/ha): 15%
- inhibition at 4 g/ha (IPOHE; [7]): 0%
- pest or weed control at 4 g/ha (IPOHE; [7]): 0%
- inhibition at 16 g/ha (IPOHE; Ipomoea hederacea, 480 h, 16 g ai/ha, read-out: observed % activity 20 DAT): 10%
- inhibition at 16 g/ha (IPOHE; Ipomoea hederacea, 480 h, IPOHE, individual, use rate 16 g ai/ha, read-out: observed % activity 20 DAT): 10%
- inhibition at 4 g/ha (ERICA [4]; 4 g ai/ha): 98%
- inhibition at 8 g/ha (ERICA [4]; 8 g ai/ha): 98%
- observed % activity 20 DAT (CENCY [5]; 8 g ai/ha): 35%
- inhibition at 4 g/ha (CENCY [5]; 480 h, 4 g ai/ha, read-out: observed % activity 20 DAT): 40%
- inhibition at 8 g/ha (CENCY [5]; 480 h, 8 g ai/ha, read-out: observed % activity 20 DAT): 20%
- inhibition at 16 g/ha (CENCY [5]; 480 h, 16 g ai/ha, read-out: observed % activity 20 DAT): 10%
- observed % activity 20 DAT (ERICA [6]; 4 g ai/ha): 98%
- observed % activity 20 DAT (ERICA [6]; 8 g ai/ha): 98%
